Results reported in the NIST ThermoML archive (doi:10.1016/j.fluid.2017.12.010).
± gives the expanded uncertainty stated by the source.

Assay: xn = mol fraction of the nth substance listed
Conditions: Liquid, Vibrating tube method

CCCCCCCCCCCC [dodecane] + CCCCCCCCCC
Conditions	mass density [kg/m3]
323.11 K, 10000 kPa, x2 = 0.4436	728 ± 3
323.11 K, 20000 kPa, x2 = 0.4436	735 ± 3
323.11 K, 30000 kPa, x2 = 0.4436	742 ± 3
323.12 K, 40000 kPa, x2 = 0.4436	749 ± 3
323.12 K, 60000 kPa, x2 = 0.4436	761 ± 3
323.12 K, 80000 kPa, x2 = 0.4436	771 ± 3
323.13 K, 100000 kPa, x2 = 0.4436	781 ± 3
323.21 K, 100 kPa, x2 = 0.6433	715 ± 3
323.21 K, 1000 kPa, x2 = 0.6433	716 ± 3
323.21 K, 5000 kPa, x2 = 0.6433	720 ± 3
323.21 K, 10000 kPa, x2 = 0.6433	724 ± 3
323.21 K, 20000 kPa, x2 = 0.6433	732 ± 3
323.22 K, 30000 kPa, x2 = 0.6433	739 ± 3
323.22 K, 40000 kPa, x2 = 0.6433	746 ± 3
323.22 K, 60000 kPa, x2 = 0.6433	757 ± 3
323.22 K, 80000 kPa, x2 = 0.6433	768 ± 3
323.22 K, 100000 kPa, x2 = 0.6433	777 ± 3
323.23 K, 5000 kPa, x2 = 0.7841	717 ± 3
323.24 K, 100 kPa, x2 = 0.7841	712 ± 3
323.24 K, 1000 kPa, x2 = 0.7841	713 ± 3
323.24 K, 10000 kPa, x2 = 0.7841	721 ± 3
323.24 K, 20000 kPa, x2 = 0.7841	729 ± 3
323.24 K, 30000 kPa, x2 = 0.7841	736 ± 3
323.24 K, 40000 kPa, x2 = 0.7841	743 ± 3
323.24 K, 60000 kPa, x2 = 0.7841	755 ± 3
323.24 K, 80000 kPa, x2 = 0.7841	765 ± 3
323.24 K, 99990 kPa, x2 = 0.7841	775 ± 3
332.74 K, 100 kPa, x2 = 0	720 ± 3
332.74 K, 1000 kPa, x2 = 0	721 ± 3
332.74 K, 5000 kPa, x2 = 0	725 ± 3
332.74 K, 10000 kPa, x2 = 0	729 ± 3
332.74 K, 20000 kPa, x2 = 0	737 ± 3
332.74 K, 30000 kPa, x2 = 0	744 ± 3
332.74 K, 40000 kPa, x2 = 0	750 ± 3
332.74 K, 50000 kPa, x2 = 0	757 ± 3
332.74 K, 60000 kPa, x2 = 0	762 ± 3
332.74 K, 70000 kPa, x2 = 0	768 ± 3
332.74 K, 80000 kPa, x2 = 0	773 ± 3
332.74 K, 90000 kPa, x2 = 0	778 ± 3
332.75 K, 100000 kPa, x2 = 0	782 ± 3
332.97 K, 100 kPa, x2 = 0.4436	712 ± 3
332.98 K, 1000 kPa, x2 = 0.4436	713 ± 3
332.99 K, 5000 kPa, x2 = 0.4436	717 ± 3
332.99 K, 10000 kPa, x2 = 0.4436	721 ± 3
332.99 K, 20000 kPa, x2 = 0.4436	729 ± 3
333 K, 100 kPa, x2 = 0.2297	716 ± 3
333 K, 1000 kPa, x2 = 0.2297	717 ± 3
333 K, 5000 kPa, x2 = 0.2297	720 ± 3
333 K, 30000 kPa, x2 = 0.4436	736 ± 3
333 K, 40000 kPa, x2 = 0.4436	743 ± 3
333.01 K, 10000 kPa, x2 = 0.2297	725 ± 3
333.01 K, 20000 kPa, x2 = 0.2297	733 ± 3
333.01 K, 60000 kPa, x2 = 0.4436	755 ± 3
333.01 K, 80000 kPa, x2 = 0.4436	766 ± 3
333.01 K, 100000 kPa, x2 = 0.4436	776 ± 3
333.02 K, 30000 kPa, x2 = 0.2297	740 ± 3
333.02 K, 40000 kPa, x2 = 0.2297	747 ± 3
333.02 K, 60000 kPa, x2 = 0.2297	758 ± 3
333.03 K, 80000 kPa, x2 = 0.2297	769 ± 3
333.03 K, 100000 kPa, x2 = 0.2297	779 ± 3
333.06 K, 100 kPa, x2 = 0.7841	705 ± 3
333.07 K, 1000 kPa, x2 = 0.7841	706 ± 3
333.07 K, 40000 kPa, x2 = 0.7841	737 ± 3
333.08 K, 5000 kPa, x2 = 0.7841	710 ± 3
333.08 K, 10000 kPa, x2 = 0.7841	714 ± 3
333.08 K, 20000 kPa, x2 = 0.7841	723 ± 3
333.08 K, 30000 kPa, x2 = 0.7841	730 ± 3
333.08 K, 60000 kPa, x2 = 0.7841	749 ± 3
333.08 K, 80000 kPa, x2 = 0.7841	760 ± 3
333.08 K, 100000 kPa, x2 = 0.7841	770 ± 3
333.09 K, 100 kPa, x2 = 0.6433	708 ± 3
333.09 K, 1000 kPa, x2 = 0.6433	709 ± 3
333.09 K, 5000 kPa, x2 = 0.6433	713 ± 3
333.09 K, 10000 kPa, x2 = 0.6433	717 ± 3
333.09 K, 30000 kPa, x2 = 0.6433	733 ± 3
333.1 K, 20000 kPa, x2 = 0.6433	725 ± 3
333.1 K, 40000 kPa, x2 = 0.6433	740 ± 3
333.1 K, 60000 kPa, x2 = 0.6433	752 ± 3
333.1 K, 80000 kPa, x2 = 0.6433	763 ± 3
333.1 K, 100000 kPa, x2 = 0.6433	772 ± 3
342.67 K, 100 kPa, x2 = 0	713 ± 3
342.67 K, 1000 kPa, x2 = 0	714 ± 3
342.67 K, 5000 kPa, x2 = 0	718 ± 3
342.67 K, 10000 kPa, x2 = 0	722 ± 3
342.67 K, 20000 kPa, x2 = 0	731 ± 3
342.67 K, 30000 kPa, x2 = 0	738 ± 3
342.67 K, 40000 kPa, x2 = 0	745 ± 3
342.67 K, 50000 kPa, x2 = 0	751 ± 3
342.67 K, 60000 kPa, x2 = 0	757 ± 3
342.67 K, 69990 kPa, x2 = 0	763 ± 3
342.67 K, 80000 kPa, x2 = 0	768 ± 3
342.67 K, 90000 kPa, x2 = 0	773 ± 3
342.67 K, 100000 kPa, x2 = 0	778 ± 3
342.92 K, 100 kPa, x2 = 0.2297	709 ± 3
342.92 K, 100 kPa, x2 = 0.4436	705 ± 3
342.92 K, 1000 kPa, x2 = 0.2297	710 ± 3
342.92 K, 1000 kPa, x2 = 0.4436	706 ± 3
342.92 K, 5000 kPa, x2 = 0.2297	714 ± 3
342.92 K, 5000 kPa, x2 = 0.4436	710 ± 3
342.92 K, 10000 kPa, x2 = 0.2297	718 ± 3
342.92 K, 10000 kPa, x2 = 0.4436	714 ± 3
342.92 K, 20000 kPa, x2 = 0.2297	727 ± 3
342.93 K, 100 kPa, x2 = 0.6433	701 ± 3
342.93 K, 1000 kPa, x2 = 0.6433	702 ± 3
342.93 K, 20000 kPa, x2 = 0.4436	723 ± 3
342.93 K, 30000 kPa, x2 = 0.2297	734 ± 3
342.93 K, 30000 kPa, x2 = 0.4436	731 ± 3
342.93 K, 40000 kPa, x2 = 0.2297	741 ± 3
342.93 K, 40000 kPa, x2 = 0.4436	738 ± 3
342.93 K, 60000 kPa, x2 = 0.2297	753 ± 3
342.93 K, 60000 kPa, x2 = 0.4436	750 ± 3
342.93 K, 80000 kPa, x2 = 0.4436	761 ± 3
342.93 K, 100000 kPa, x2 = 0.4436	771 ± 3
342.94 K, 5000 kPa, x2 = 0.6433	706 ± 3
342.94 K, 10000 kPa, x2 = 0.6433	710 ± 3
342.94 K, 20000 kPa, x2 = 0.6433	719 ± 3
342.94 K, 30000 kPa, x2 = 0.6433	727 ± 3
342.94 K, 40000 kPa, x2 = 0.6433	734 ± 3
342.94 K, 60000 kPa, x2 = 0.6433	747 ± 3
